Measured values taken from US20060257843A1 (priority 2002, published 2006).
Read-outs that look alike come from different tables or passages of the source.

How the values were obtained:
[1] = tested on: primary cultures of cortex
F425G Shaker mutation = F425G Shaker mutation (Drosophila melanogaster, UniProt P08510, F425G); details: cited from earlier work
cortical cells = details: 100 uM tolbutamide
[2] = tested on: primary cortical cultures; details: 5% Triton; 20 minutes incubation

Chain of F425G Shaker mutation (P08510 whole entry F425G): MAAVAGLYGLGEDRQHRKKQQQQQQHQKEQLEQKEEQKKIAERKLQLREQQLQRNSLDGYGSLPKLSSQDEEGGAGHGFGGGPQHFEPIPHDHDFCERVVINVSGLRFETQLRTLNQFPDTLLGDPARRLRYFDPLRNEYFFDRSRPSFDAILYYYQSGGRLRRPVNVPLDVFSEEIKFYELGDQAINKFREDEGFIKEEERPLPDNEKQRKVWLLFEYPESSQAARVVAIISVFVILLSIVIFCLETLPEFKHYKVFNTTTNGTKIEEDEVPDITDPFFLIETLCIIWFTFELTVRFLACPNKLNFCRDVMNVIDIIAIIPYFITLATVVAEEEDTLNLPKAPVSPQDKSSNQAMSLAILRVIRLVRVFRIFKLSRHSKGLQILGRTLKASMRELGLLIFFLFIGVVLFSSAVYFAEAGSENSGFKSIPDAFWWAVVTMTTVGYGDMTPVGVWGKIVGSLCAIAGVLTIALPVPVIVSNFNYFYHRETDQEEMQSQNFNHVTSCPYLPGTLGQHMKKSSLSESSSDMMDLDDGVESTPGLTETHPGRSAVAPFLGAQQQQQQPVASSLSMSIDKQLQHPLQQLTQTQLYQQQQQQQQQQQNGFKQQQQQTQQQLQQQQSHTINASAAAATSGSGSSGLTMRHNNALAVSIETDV

Compound: COc1ccc(Cl)cc1C(=O)NCCc1ccc(S(=O)(=O)NC(=O)NC2CCCCC2)cc1 [Glibenclamide]
- effect of Glibenclamide on κ-PVIIA-induced hyperpolarization ([1]; cortical preparations, Glibenclamide 10 nM, 100 nM κ-PVIIA): significant reductions

Compound: charybdotoxin [reference compound]
- increase of charybdotoxin affinity by F425G Shaker mutation (F425G Shaker mutation): three orders of magnitude

Compound: CCCCNC(=O)NS(=O)(=O)c1ccc(C)cc1 [Tolbutamide, reference compound]
- effect of tolbutamide on κ-PVIIA protection against glutamate cytotoxicity (cortical cells): blocked

Compound: Iberiotoxin (QFTDVDCSVSKECWSVCKDLFGVDRGKCMGKKCRCYQ; UniProt P24663 1-37, looked up) [IBTX]
- effect of K+ channel antagonist on κ-PVIIA-induced hyperpolarization [1]: without any detectable effect

Compound: Triton [reference compound]
- increase in fluorescence, Enzchek protease-sensitive dye [2]: ~14%

Compound: Nc1ccncc1 [4-AP, 4-aminopyridine]
- effect of K+ channel antagonist on κ-PVIIA-induced hyperpolarization ([1]; cortical preparations, 100 nM κ-PVIIA): without any detectable effect
